Results: patent publication US20240358721A1, “GASDERMIN-D INHIBITORS AND USES THEREOF FOR TREATING PULMONARY VASO-OCCLUSION” (UNIVERSITY OF PITTSBURGH-OF THE COMMONWEALTH SYSTEM OF …, priority 2021, published 2024)
“Also recorded” adds a separate entry of the source. Where a SMILES comes first, the peptide text is derived from it. The star is where a group is joined. Cbz = O=C(OCc1ccccc1)*; CH2F = FC*

Assays:
Format in all cases: in vivo, mouse
SCD-Selp−/− mice [1] = test: qFILM detection of circulating NETs arriving in the lung microcirculation, SCD-Selp−/− mice; conditions: IV 10 μmole/kg oxy-Hb with 10 mg/kg inhibitor vs oxy-Hb alone, significant
Experimental: (FIG. 5A) Experimental scheme: SCD or SCD-Selp^−/− mice were IV administered 10 μmole/kg oxy-Hb (10 oxy-Hb) without or with 10 mg/kg GSDMD inhibitors LDC75591 or Disulfiram. In FIGS. 5C-5D, venous blood was processed to generate PPP and cNETs detected in PPP using Imaging Flow Cytometry. Imaging Flow Cytometry data was quantified to estimate concentration of cNETs (#cNETs/μl of plasma). In FIGS. 5B, and 5E-5F, quantitative fluorescence intravital lung microscopy (qFILM) was used to detect arrival of circulating NETs (cNETs) within the lung microcirculation. Number of cNETs entering per FOV over a 1-minute duration (#cNETs/FOV/min) were quantified. In FIGS. 5G-5J, qFILM was used to assess the absence or presence of pulmonary vaso-occlusion using the experimental strategy described in FIG. 1A. Pulmonary vaso-occlusions (PVOs) were compared between treatment groups using following two parameters: Number of PVOs per Field of View (#PVOs/FOV) and number of large PVOs (with area>1000 μm^2) per FOV. […]
Quantitative fluorescence intravital lung microscopy (qFILM) has been used widely for in vivo assessment of pulmonary vasoocclusion in mice with SCD [Bennewitz M F et al., (2017); Vats R, Brzoska T, Bennewitz M F, et al. (2020); Vats R, Tutuncuoglu E, Pradhan-Sundd T, Tejero J, Shaw G D, Sundd P. (2020); Bennewitz M F, Tutuncuoglu E, Gudapati S, et al. (2020)] […]

SCD-Selp−/− mice [2] = test: qFILM assessment of P-selectin-independent pulmonary vaso-occlusion in SCD-Selp−/− mice IV administered oxy-Hb; conditions: IV 10 μmole/kg oxy-Hb with 10 mg/kg inhibitor vs oxy-Hb alone
Description: (§1) Quantitative fluorescence intravital lung microscopy (qFILM) was used to assess the absence or presence of platelet-neutrophil aggregate mediated pulmonary vaso-occlusion. Pulmonary microcirculation (pseudo-colored purple), neutrophils (red) and platelets (pseudo-colored green) were labeled in vivo by IV administration of FITC dextran, AF546-anti-Ly6G Ab and V450-anti-CD49b Ab, respectively. […] White arrows denote the direction of blood flow within the pulmonary arterioles. Alveoli are marked with asterisks. Scale bars 20 μm. The diameter of pulmonary arteriole in B-E is ˜22 μm, 32 μm, 31.5 μm, and 31 μm, respectively. […] Refer Online Data Supplement for details. […] The data for mice with SCD IV administered 10 oxy-Hb (n=5 mice; 75 FOVs) are included as black bars in FIGS. 1N and 1O for relative comparison. qFILM FOV size ˜65 536 μm^2. Data represent mean ±SE and are compared using Student t test. *P<0.05 (FIG. 1P) Schematic showing the main findings of the study. The sterile inflammatory milieu (DAMPs, IFN-I signaling, and ROS) in SCD promotes caspase-4 (humans) or caspase-11 (mouse)-dependent cleavage of neutrophil GSDMD into the active form GSDMD-NT, leading to the shedding of NETs in the liver microcirculation. Once shed, these NETs are carried by the blood as cNETs to the lung, where they promote neutrophil-platelet aggregation in the pulmonary arterioles, leading to PVO and lung injury (acute chest syndrome).
SCD-Selp^−/− mice were IV administered 10 μmole/kg oxy-Hb (10 oxy-Hb) without or with 10 mg/kg GSDMD inhibitor (Disulfiram). Quantitative fluorescence intravital lung microscopy (qFILM) was used to assess the absence or presence of pulmonary vasoocclusion using the same experimental scheme described in FIG. 1A. Pulmonary vasoocclusions (PVOs) were compared between treatment groups using following two parameters: Number of PVOs per Field of View (#PVOs/FOV) and number of large PVOs (with area>1000 μm^2) per FOV. […] The data for SCD mice IV administered 10 oxy-Hb (n=5 mice; 75 FOVs) is included as black bars in FIGS. 4A and 4B for relative comparison. FOV size˜65,536 μm^2. […]
(FIG. 5A) Experimental scheme: SCD or SCD-Selp^−/− mice were IV administered 10 μmole/kg oxy-Hb (10 oxy-Hb) without or with 10 mg/kg GSDMD inhibitors LDC75591 or Disulfiram. In FIGS. 5C-5D, venous blood was processed to generate PPP and cNETs detected in PPP using Imaging Flow Cytometry. Imaging Flow Cytometry data was quantified to estimate concentration of cNETs (#cNETs/μl of plasma). In FIGS. 5B, and 5E-5F, quantitative fluorescence intravital lung microscopy (qFILM) was used to detect arrival of circulating NETs (cNETs) within the lung microcirculation. Number of cNETs entering per FOV over a 1-minute duration (#cNETs/FOV/min) were quantified. […]

SCD mice = test: qFILM assessment of pulmonary vaso-occlusion in SCD mice IV administered oxy-Hb; conditions: LDC7559 10 mg/kg, Z-VAD-FMK 0.004 μmol/kg; for Number of PVOs per Field of View (#PVOs/FOV) / number of large PVOs (with area>1000 μm^2) per FOV: IV 10 μmole/kg oxy-Hb with inhibitor vs oxy-Hb alone; for Number of PVOs per Field of View (#PVOs/FOV) / number of large PVOs (with area>1000 μm^2) per FOV / blood flow in the lung (rapidly transiting erythrocytes) / lung vaso-occlusion in representative qFILM images: NSA 20 mg/kg; for blood flow in the lung (rapidly transiting erythrocytes) / lung vaso-occlusion in representative qFILM images / large neutrophil-platelet aggregates occluding the arteriolar bottle-necks in the lung: IV 10 μmole/kg oxy-Hb with inhibitor; for large neutrophil-platelet aggregates occluding the arteriolar bottle-necks in the lung: Necrosulfonamide 20 mg/kg
Description: as §1
Intravital lung microscopy (experimental scheme shown in FIG. 1A) was conducted in live mice to assess whether preventing liver-to-lung embolization of cNETs by inhibiting or deleting GSDMD-signaling leads to amelioration of pulmonary vaso-occlusion. Although large neutrophil-platelet aggregates (marked with dotted ellipses) were seen occluding the arteriolar bottle-necks, leading to impaired blood flow in the lung of SCD mice IV administered 10 μmole/kg oxy-Hb (FIG. 1B), such aggregates were rare in the lung of SCD mice IV administered 10 μmole/kg oxy-Hb with 0.004 μmol/kg pan-caspase inhibitor Z-VAD-FMK (FIG. 1C) or 10 mg/kg GSDMD-NT inhibitor LDC7559 (FIG. 1D) or 20 mg/kg GSDMD-NT inhibitor Necrosulfonamide (FIG. 1E). […] The twofold higher dose of 20 μmole/kg IV oxy-Hb also led to the development of lung vaso-occlusion in WT but not Gsdmd^−/− mice (FIG. 2). […] P-selectin deficiency led to an approximately 50% reduction in pulmonary vaso-occlusion in SCD-Selp^−/− mice administered 10 μmole/kg IV oxy-Hb (FIG. 3), however, IV administration of oxy-Hb with GSDMD-NT inhibitor (LDC7559) led to further threefold (significant) reduction in pulmonary vaso-occlusions per FOV (FIGS. 1N and 4A, and FIG. 5) and absence of large pulmonary vaso-occlusions (area>1000 μm^2) per FOV (FIG. 10) in SCD-Selp^−/− mice.
Quantitative fluorescence intravital lung microscopy (qFILM) has been used widely for in vivo assessment of pulmonary vasoocclusion in mice with SCD [Bennewitz M F et al., (2017); Vats R, Brzoska T, Bennewitz M F, et al. (2020); Vats R, Tutuncuoglu E, Pradhan-Sundd T, Tejero J, Shaw G D, Sundd P. (2020); Bennewitz M F, Tutuncuoglu E, Gudapati S, et al. (2020)] In the current study, qFILM was used to assess pulmonary vaso-occlusion and detect NETs in the intact lung microcirculation of live mice following IV challenge with saline, oxy-hemoglobin (oxy-Hb), hemin, or lipo-polysaccharide with or without pretreatment with N-terminus active domain (GSDMD-NT) inhibitors LDC7559 [Sollberger G, Choidas A, Burn G L, et al. (2018)], NSA [Rathkey J K, Zhao J, Liu Z, et al. (2018)], Disulfiram [Hu J J, Liu X, Xia S, et al. (2020)], or the pan-caspase inhibitor Z-VAD-FMK [Sollberger G, Choidas A, Burn G L, et al. (2018)], haptoglobin [Belcher J D, Chen C, Nguyen J, et al. (2014)], or TLR4-inhibitor (TAK242) [Belcher J D, Chen C, Nguyen J, et al. (2014)]. qFILM was conducted with a Nikon multiphoton excitation fluorescence microscope and an APO LWD 25×water immersion objective with 1.1 NA. […]

## CCN(CC)C(=S)SSC(=S)N(CC)CC [Disulfiram, disulfiram]
SCD-Selp−/− mice [1]
  #cNETs/FOV/min in the lung, less than 10 oxy-Hb alone: 4 folds
SCD-Selp−/− mice [2]
  number of large PVOs (with area>1000 μm^2) per FOV: absent
SCD-Selp−/− mice [2]; 10 mg/kg
  Number of PVOs per Field of View (#PVOs/FOV): significantly reduced

## COc1nccnc1NS(=O)(=O)c1ccc(NC(=O)/C=C/c2ccc([N+](=O)[O-])s2)cc1 [Necrosulfonamide, necrosulfonamide]
SCD mice
  Number of PVOs per Field of View (#PVOs/FOV): significantly reduced
  number of large PVOs (with area>1000 μm^2) per FOV: significantly reduced
  blood flow in the lung (rapidly transiting erythrocytes): significantly improved
  lung vaso-occlusion in representative qFILM images: lack of pulmonary vaso-occlusion
  large neutrophil-platelet aggregates occluding the arteriolar bottle-necks in the lung: rare
SCD mice; listed as NSA
  Number of PVOs per Field of View (#PVOs/FOV): significantly less
  number of large PVOs (with area>1000 μm^2) per FOV: significantly less
  lung vaso-occlusion in representative qFILM images: absence of lung vaso-occlusion

## COC(=O)C[C@H](NC(=O)[C@H](C)NC(=O)[C@@H](NC(=O)OCc1ccccc1)C(C)C)C(=O)CF [Z-VAD-FMK] (Cbz-Val-Ala-Asp(OMe)-CH2F)
SCD mice
  Number of PVOs per Field of View (#PVOs/FOV): significantly less; also recorded: significantly reduced
  number of large PVOs (with area>1000 μm^2) per FOV: significantly less; also recorded: significantly reduced
  blood flow in the lung (rapidly transiting erythrocytes): significantly improved
  lung vaso-occlusion in representative qFILM images: absence of lung vaso-occlusion; also recorded: lack of pulmonary vaso-occlusion
  large neutrophil-platelet aggregates occluding the arteriolar bottle-necks in the lung: rare
